Laboratory results from US11178873B2, “Cyclic N-carboxamide compounds useful as herbicides” (FMC CORPORATION, priority 2015, dated 2021).

Legend:
Format in all cases: in vivo
[1] = tested on: barnyardgrass (Echinochloa crus-galli); test: Test A preemergence, barnyardgrass; settings: 0 to 100 scale, 0 no effect, 100 complete control
Text: (§1) Seeds of plant species selected from barnyardgrass (Echinochloa crus-galli), crabgrass, large (large crabgrass, Digitaria sanguinalis), kochia (Kochia scoparia), ragweed (common ragweed, Ambrosia elatior), morningglory (Ipomoea spp.), velvetleaf (Abutilon theophrasti), ryegrass, Italian (Italian ryegrass, Lolium multiflorum), foxtail, giant (giant foxtail, Setaria faberii), wheat (Triticum aestivum), corn (Zea mays), and pigweed (Amaranthus retroflexus), were planted into a blend of loam soil and sand and treated preemergence with a directed soil spray using test chemicals formulated in a non-phytotoxic solvent mixture which included a surfactant. At the same time, plants selected from these crop and weed species and also blackgrass (Alopecurus myosuroides), and galium (catchweed bedstraw, Galium aparine), were planted in pots containing the same blend of loam soil and sand and treated with postemergence applications of test chemicals formulated in the same manner. Plants ranged in height from 2 to 10 cm and were in the one- to two-leaf stage for the postemergence treatment. Treated plants and untreated controls were maintained in a greenhouse for approximately 10 d, after which time all treated plants were compared to untreated controls and visually evaluated for injury. Plant response ratings, summarized in Table A, are based on a 0 to 100 scale where 0 is no effect and 100 is complete control. A dash (-) response means no test result.

kochia (Kochia scoparia) [2] = test: Test A preemergence, kochia; settings: 0 to 100 scale, 0 no effect, 100 complete control
Text: as §1

[3] = tested on: ragweed (common ragweed, Ambrosia elatior); test: Test A preemergence, ragweed; settings: 0 to 100 scale, 0 no effect, 100 complete control
Text: as §1

[4] = tested on: ryegrass, Italian (Italian ryegrass, Lolium multiflorum); test: Test A preemergence, ryegrass, Italian; settings: 0 to 100 scale, 0 no effect, 100 complete control
Text: as §1

[5] = tested on: foxtail, giant (giant foxtail, Setaria faberii); test: Test A preemergence, foxtail, giant; settings: 0 to 100 scale, 0 no effect, 100 complete control
Text: as §1

[6] = tested on: pigweed (Amaranthus retroflexus); test: Test A preemergence, pigweed; settings: 0 to 100 scale, 0 no effect, 100 complete control
Text: as §1

[7] = tested on: barnyardgrass (Echinochloa crus-galli); test: Test A postemergence, barnyardgrass; settings: 0 to 100 scale, 0 no effect, 100 complete control
Text: as §1

kochia (Kochia scoparia) [8] = test: Test A postemergence, kochia; settings: 0 to 100 scale, 0 no effect, 100 complete control
Text: as §1

[9] = tested on: ragweed (common ragweed, Ambrosia elatior); test: Test A postemergence, ragweed; settings: 0 to 100 scale, 0 no effect, 100 complete control
Text: as §1

[10] = tested on: ryegrass, Italian (Italian ryegrass, Lolium multiflorum); test: Test A postemergence, ryegrass, Italian; settings: 0 to 100 scale, 0 no effect, 100 complete control
Text: as §1

[11] = tested on: foxtail, giant (giant foxtail, Setaria faberii); test: Test A postemergence, foxtail, giant; settings: 0 to 100 scale, 0 no effect, 100 complete control
Text: as §1

[12] = tested on: wheat (Triticum aestivum); test: Test A postemergence, wheat; settings: 0 to 100 scale, 0 no effect, 100 complete control
Text: as §1

corn (Zea mays) = test: Test A postemergence, corn; settings: 0 to 100 scale, 0 no effect, 100 complete control
Text: as §1

[13] = tested on: pigweed (Amaranthus retroflexus); test: Test A postemergence, pigweed; settings: 0 to 100 scale, 0 no effect, 100 complete control
Text: as §1

[14] = tested on: blackgrass (Alopecurus myosuroides); test: Test A postemergence, blackgrass; settings: 0 to 100 scale, 0 no effect, 100 complete control
Text: as §1

[15] = tested on: galium (catchweed bedstraw, Galium aparine); test: Test A postemergence, galium; settings: 0 to 100 scale, 0 no effect, 100 complete control
Text: as §1

[16] = tested on: barnyardgrass (Echinochloa crus-galli); test: Test B flooded paddy test, barnyardgrass; settings: Flood, 500 g ai/ha; scale 0 to 100 (0 no effect, 100 complete control); 13 to 15 d
Procedure: (§2) Plant species in the flooded paddy test selected from rice (Oryza sativa), sedge, umbrella (small-flower umbrella sedge, Cyperus difformis), ducksalad (Heteranthera limosa), and barnyardgrass (Echinochloa crus-galli) were grown to the 2-leaf stage for testing. At time of treatment, test pots were flooded to 3 cm above the soil surface, treated by application of test compounds directly to the paddy water, and then maintained at that water depth for the duration of the test. Treated plants and controls were maintained in a greenhouse for 13 to 15 d, after which time all species were compared to controls and visually evaluated. Plant response ratings, summarized in Table B, are based on a scale of 0 to 100 where 0 is no effect and 100 is complete control. A dash (-) response means no test result.

[17] = tested on: ducksalad (Heteranthera limosa); test: Test B flooded paddy test, ducksalad; settings: Flood, 500 g ai/ha; scale 0 to 100 (0 no effect, 100 complete control); 13 to 15 d
Procedure: as §2

rice (Oryza sativa) = test: Test B flooded paddy test, rice; settings: Flood, 500 g ai/ha; scale 0 to 100 (0 no effect, 100 complete control); 13 to 15 d
Procedure: as §2

[18] = tested on: sedge, umbrella (small-flower umbrella sedge, Cyperus difformis); test: Test B flooded paddy test, sedge, umbrella; settings: Flood, 500 g ai/ha; scale 0 to 100 (0 no effect, 100 complete control); 13 to 15 d
Procedure: as §2

| Structure (SMILES) | Plant response rating, Barnyardgrass ([1]; 125 g ai/ha) | Plant response rating, Barnyardgrass ([1]; 500 g ai/ha) | Plant response rating, Kochia (kochia (Kochia scoparia) [2]; 125 g ai/ha) | Plant response rating, Kochia (kochia (Kochia scoparia) [2]; 500 g ai/ha) | Plant response rating, Ragweed ([3]; 125 g ai/ha) | Plant response rating, Ragweed ([3]; 500 g ai/ha) | Plant response rating, Ryegrass, Italian ([4]; 125 g ai/ha) | Plant response rating, Ryegrass, Italian ([4]; 500 g ai/ha) | Plant response rating, Foxtail, Giant ([5]; 125 g ai/ha) | Plant response rating, Foxtail, Giant ([5]; 500 g ai/ha) | Plant response rating, Pigweed ([6]; 125 g ai/ha) | Plant response rating, Pigweed ([6]; 500 g ai/ha) | Plant response rating, Barnyardgrass ([7]; 125 g ai/ha) | Plant response rating, Barnyardgrass ([7]; 500 g ai/ha) | Plant response rating, Kochia (kochia (Kochia scoparia) [8]; 125 g ai/ha) | Plant response rating, Kochia (kochia (Kochia scoparia) [8]; 500 g ai/ha) | Plant response rating, Ragweed ([9]; 125 g ai/ha) | Plant response rating, Ragweed ([9]; 500 g ai/ha) | Plant response rating, Ryegrass, Italian ([10]; 125 g ai/ha) | Plant response rating, Ryegrass, Italian ([10]; 500 g ai/ha) | other results |
| --- | --- | --- | --- | --- | --- | --- | --- | --- | --- | --- | --- | --- | --- | --- | --- | --- | --- | --- | --- | --- | --- |
| O=C1NCC(c2ccc(F)c(F)c2)N1C(=O)Nc1ccccc1F (stereo not drawn) [Compound 8] | 0 | 0 | 0 | 0 | 0 | 0 | 0 | 0 | 0 | 0 | 0 | 0 | 0 | 0 | 0 | 0 | 0 | 0 | 0 | 0 | Plant response rating, Foxtail, Giant ([11]; 125 g ai/ha): 0; Plant response rating, Foxtail, Giant ([11]; 500 g ai/ha): 0; Plant response rating, Wheat ([12]; 125 g ai/ha): 0; Plant response rating, Wheat ([12]; 500 g ai/ha): 0; Plant response rating, Corn (corn (Zea mays); 125 g ai/ha): 0; Plant response rating, Corn (corn (Zea mays); 500 g ai/ha): 0; Plant response rating, Pigweed ([13]; 125 g ai/ha): 0; Plant response rating, Pigweed ([13]; 500 g ai/ha): 0; Plant response rating, Blackgrass ([14]; 125 g ai/ha): 0; Plant response rating, Blackgrass ([14]; 500 g ai/ha): 0; Plant response rating, Galium ([15]; 125 g ai/ha): 0; Plant response rating, Galium ([15]; 500 g ai/ha): 0; Plant response rating, Barnyardgrass [16]: 0; Plant response rating, Ducksalad [17]: 40; Plant response rating, Rice (rice (Oryza sativa)): 0; Plant response rating, Sedge, Umbrella [18]: 0 |
| O=C1NCC(c2ccc(F)c(F)c2)N1C(=O)Nc1ccccc1Cl (stereo not drawn) [Compound 9] | 0 | 0 | 0 | 0 | 0 | 0 | 0 | 0 | 0 | 0 | 0 | 0 | 0 | 0 | 0 | 0 | 0 | 0 | 0 | 0 | Plant response rating, Foxtail, Giant ([11]; 125 g ai/ha): 0; Plant response rating, Foxtail, Giant ([11]; 500 g ai/ha): 0; Plant response rating, Wheat ([12]; 125 g ai/ha): 0; Plant response rating, Wheat ([12]; 500 g ai/ha): 0; Plant response rating, Corn (corn (Zea mays); 125 g ai/ha): 0; Plant response rating, Corn (corn (Zea mays); 500 g ai/ha): 0; Plant response rating, Pigweed ([13]; 125 g ai/ha): 0; Plant response rating, Pigweed ([13]; 500 g ai/ha): 0; Plant response rating, Blackgrass ([14]; 125 g ai/ha): 0; Plant response rating, Blackgrass ([14]; 500 g ai/ha): 0; Plant response rating, Galium ([15]; 125 g ai/ha): 0; Plant response rating, Galium ([15]; 500 g ai/ha): 0; Plant response rating, Barnyardgrass [16]: 0; Plant response rating, Ducksalad [17]: 0; Plant response rating, Rice (rice (Oryza sativa)): 0; Plant response rating, Sedge, Umbrella [18]: 0 |
| O=C1NCC(c2ccc(F)c(F)c2)N1C(=O)Nc1ccccc1C(F)(F)F (stereo not drawn) [Compound 10] | 0 | 0 | 0 | 0 | 0 | 0 | 0 | 0 | 20 | 60 | 0 | 0 | 0 | 0 | 0 | 0 | 0 | 0 | 0 | 0 | Plant response rating, Foxtail, Giant ([11]; 125 g ai/ha): 0; Plant response rating, Foxtail, Giant ([11]; 500 g ai/ha): 40; Plant response rating, Wheat ([12]; 125 g ai/ha): 0; Plant response rating, Wheat ([12]; 500 g ai/ha): 0; Plant response rating, Corn (corn (Zea mays); 125 g ai/ha): 0; Plant response rating, Corn (corn (Zea mays); 500 g ai/ha): 0; Plant response rating, Pigweed ([13]; 125 g ai/ha): 0; Plant response rating, Pigweed ([13]; 500 g ai/ha): 0; Plant response rating, Blackgrass ([14]; 125 g ai/ha): 0; Plant response rating, Blackgrass ([14]; 500 g ai/ha): 0; Plant response rating, Galium ([15]; 125 g ai/ha): 0; Plant response rating, Galium ([15]; 500 g ai/ha): 0; Plant response rating, Barnyardgrass [16]: 0; Plant response rating, Ducksalad [17]: 0; Plant response rating, Rice (rice (Oryza sativa)): 0; Plant response rating, Sedge, Umbrella [18]: 0 |
